Consider 9 molecules from PubChem BioAssay AID248 (DTP/NCI, 2004).

SMILES strings stand for the structures. Several values for one entry are separate records, joined by “and”; a condition that tells them apart may be missing. Identical values can stand only once. Toxic doses and inconclusive results are not listed.

For this test, the system named is L1210 leukemia ip in BDF1 mice, survival T/C. Description: NCI In Vivo Anticancer Drug Screen. Data for tumor model L1210 Leukemia (intraperitoneal) in B6D2F1 (BDF1) mice. The settings on record: higher = longer survival. The essentials:
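Tumor cells were implanted, animals were treated, and survival was followed. The result divides the treated measurement by the vehicle-control measurement.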

Where [1] appears, read: endpoint: mean survival time, dose: 50.0 mg/kg/injection, schedule: Q01DX001 (ip), vehicle: saline.
Setting [2] is: endpoint: mean survival time, dose: 100.0 mg/kg/injection, schedule: Q01DX001 (ip), vehicle: saline.
Where [3] appears, read: endpoint: mean survival time, dose: 200.0 mg/kg/injection, schedule: Q01DX001 (ip), vehicle: saline.
Setting [4] is: endpoint: mean survival time, dose: 100.0 mg/kg/injection, schedule: Q04DX002 (ip), vehicle: Klucel (hydroxypropylcellulose) (HPC).

Turning to `CC[C@H]1CN2CCc3cc(OC)c(OC)cc3[C@@H]2C[C@@H]1C[C@H]1NCCc2cc(O)c(OC)cc21`, the T/C is 105 % of control and 119 % of control (endpoint: mean survival time, dose: 0.5 mg/kg/injection, schedule: Q01DX015 (ip), vehicle: saline); 116 % of control (endpoint: mean survival time, dose: 1.0 mg/kg/injection, schedule: Q01DX009 (ip), vehicle: saline); 115 % of control and 120 % of control (endpoint: mean survival time, dose: 1.0 mg/kg/injection, schedule: Q01DX015 (ip), vehicle: saline); 115 % of control (endpoint: mean survival time, dose: 2.0 mg/kg/injection, schedule: Q01DX009 (ip), vehicle: saline); 104 % of control (endpoint: mean survival time, dose: 2.0 mg/kg/injection, schedule: Q## X003 (ip), vehicle: saline); 114 % of control (endpoint: mean survival time, dose: 2.0 mg/kg/injection, schedule: Q## X024 (ip), vehicle: saline). For the same molecule, the T/C is, setting by setting: (endpoint: mean survival time, dose: 3.0 mg/kg/injection, schedule: Q01DX001 (oral), vehicle: saline) 107 % of control; (endpoint: mean survival time, dose: 3.75 mg/kg/injection, schedule: Q01DX015 (ip), vehicle: saline) 153 % of control; (endpoint: mean survival time, dose: 4.0 mg/kg/injection, schedule: Q01DX001 (ip), vehicle: saline) 113 % of control; (endpoint: mean survival time, dose: 4.0 mg/kg/injection, schedule: Q01DX009 (ip), vehicle: saline) 115 % of control; (endpoint: mean survival time, dose: 4.0 mg/kg/injection, schedule: Q01DX015 (ip), vehicle: saline) 150 % of control; (endpoint: mean survival time, dose: 4.0 mg/kg/injection, schedule: Q04DX003 (ip), vehicle: saline) 116 % of control. For the same molecule, the T/C (endpoint: mean survival time, dose: 4.0 mg/kg/injection, schedule: Q## X002 (ip), vehicle: saline) was 103 % of control; the T/C (endpoint: mean survival time, dose: 4.0 mg/kg/injection, schedule: Q## X003 (ip), vehicle: saline) was 103 % of control; the T/C (endpoint: mean survival time, dose: 4.0 mg/kg/injection, schedule: Q## X008 (ip), vehicle: saline) was 116 % of control; the T/C (endpoint: mean survival time, dose: 4.0 mg/kg/injection, schedule: Q## X016 (ip), vehicle: saline) was 93 % of control; the T/C (endpoint: mean survival time, dose: 4.0 mg/kg/injection, schedule: Q## X024 (ip), vehicle: saline) was 122 % of control; the T/C (endpoint: mean survival time, dose: 6.0 mg/kg/injection, schedule: Q01DX001 (oral), vehicle: saline) was 103 % of control. Moreover, the T/C is 111 % of control (endpoint: mean survival time, dose: 8.0 mg/kg/injection, schedule: Q01DX001 (ip), vehicle: saline); 157 % of control (endpoint: mean survival time, dose: 8.0 mg/kg/injection, schedule: Q01DX005 (ip), vehicle: saline); 112 % of control and 86 % of control (endpoint: mean survival time, dose: 8.0 mg/kg/injection, schedule: Q01DX009 (ip), vehicle: saline); 118 % of control (endpoint: mean survival time, dose: 8.0 mg/kg/injection, schedule: Q04DX003 (ip), vehicle: saline); 119 % of control (endpoint: mean survival time, dose: 8.0 mg/kg/injection, schedule: Q## X002 (ip), vehicle: saline); 123 % of control (endpoint: mean survival time, dose: 8.0 mg/kg/injection, schedule: Q## X003 (ip), vehicle: saline). Also, the T/C is, setting by setting: (endpoint: mean survival time, dose: 8.0 mg/kg/injection, schedule: Q## X008 (ip), vehicle: saline) 111 % of control; (endpoint: mean survival time, dose: 8.0 mg/kg/injection, schedule: Q## X016 (ip), vehicle: saline) 103 % of control; (endpoint: mean survival time, dose: 8.0 mg/kg/injection, schedule: Q## X024 (ip), vehicle: saline) 101 % of control; (endpoint: mean survival time, dose: 12.0 mg/kg/injection, schedule: Q01DX001 (oral), vehicle: saline) 96 % of control; (endpoint: mean survival time, dose: 15.0 mg/kg/injection, schedule: Q01DX015 (ip), vehicle: saline) 104 % of control; (endpoint: mean survival time, dose: 16.0 mg/kg/injection, schedule: Q01DX001 (ip), vehicle: saline) 118 % of control. In addition, the T/C runs as follows: (endpoint: mean survival time, dose: 16.0 mg/kg/injection, schedule: Q01DX005 (ip), vehicle: saline) 162 % of control; (endpoint: mean survival time, dose: 16.0 mg/kg/injection, schedule: Q01DX009 (ip), vehicle: saline) 123 % of control; (endpoint: mean survival time, dose: 16.0 mg/kg/injection, schedule: Q01DX015 (ip), vehicle: saline) 102 % of control; (endpoint: mean survival time, dose: 16.0 mg/kg/injection, schedule: Q## X002 (ip), vehicle: saline) 112 % of control; (endpoint: mean survival time, dose: 16.0 mg/kg/injection, schedule: Q## X016 (ip), vehicle: saline) 107 % of control; (endpoint: mean survival time, dose: 16.0 mg/kg/injection, schedule: Q## X024 (ip), vehicle: saline) 86 % of control. For the same molecule, the T/C reads like this: (endpoint: mean survival time, dose: 24.0 mg/kg/injection, schedule: Q01DX001 (oral), vehicle: saline) 102 % of control; (endpoint: mean survival time, dose: 32.0 mg/kg/injection, schedule: Q01DX001 (ip), vehicle: saline) 111 % of control; (endpoint: mean survival time, dose: 32.0 mg/kg/injection, schedule: Q04DX003 (ip), vehicle: saline) 123 % of control; (endpoint: mean survival time, dose: 48.0 mg/kg/injection, schedule: Q01DX001 (oral), vehicle: saline) 121 % of control; (endpoint: mean survival time, dose: 64.0 mg/kg/injection, schedule: Q01DX001 (ip), vehicle: saline) 118 % of control; (endpoint: median survival time, dose: 4.0 mg/kg/injection, schedule: Q04DX003 (ip), vehicle: alkali diluted with saline) 106 % of control. The T/C (endpoint: median survival time, dose: 8.0 mg/kg/injection, schedule: Q04DX003 (ip), vehicle: alkali diluted with saline) was 113 % of control and the T/C (endpoint: median survival time, dose: 16.0 mg/kg/injection, schedule: Q04DX003 (ip), vehicle: alkali diluted with saline) was 121 % of control.
With `CC12CCC3c4ccc(Cc5ccc([N+](=O)[O-])cc5)cc4CCC3C1CCC2=O` (centres undefined), the T/C was 105 % of control under setting [1]; 100 % of control under setting [2]; 100 % of control under setting [3]; 105 % of control (endpoint: mean survival time, dose: 400.0 mg/kg/injection, schedule: Q01DX001 (ip), vehicle: saline).
For `C/C=C(\C)C#N`, the T/C runs as follows: (endpoint: mean survival time, dose: 22.0 mg/kg/injection, schedule: Q01DX Z (ip), vehicle: saline) 102 % of control; (endpoint: mean survival time, dose: 33.0 mg/kg/injection, schedule: Q01DX Z (ip), vehicle: saline) 93 % of control.
Regarding `Cc1ccc(C(=O)C=Nc2ccc(C(=O)O)cc2)cc1`, the T/C is, setting by setting: (endpoint: mean survival time, dose: 100.0 mg/kg/injection, schedule: Q04DX003 (ip), vehicle: Klucel (hydroxypropylcellulose) (HPC)) 97 % of control; (endpoint: mean survival time, dose: 200.0 mg/kg/injection, schedule: Q04DX003 (ip), vehicle: Klucel (hydroxypropylcellulose) (HPC)) 97 % of control.
As for `Nc1nc(SN=Nc2ccc([As](=O)(O)O)cc2)c2[nH]cnc2n1`, the T/C reads like this: (endpoint: mean survival time, dose: 0.5 mg/kg/injection, schedule: Q01DX Z (ip), vehicle: other) 110 % of control; (endpoint: mean survival time, dose: 0.7 mg/kg/injection, schedule: Q01DX Z (ip), vehicle: other) 114 % of control; (endpoint: mean survival time, dose: 1.25 mg/kg/injection, schedule: Q01DX015 (ip), vehicle: carboxymethylcellulose (CMC)) 106 % of control; (endpoint: mean survival time, dose: 1.3 mg/kg/injection, schedule: Q01DX Z (ip), vehicle: other) 107 % of control; (endpoint: mean survival time, dose: 2.5 mg/kg/injection, schedule: Q01DX015 (ip), vehicle: carboxymethylcellulose (CMC)) 115 % of control; (endpoint: mean survival time, dose: 10.0 mg/kg/injection, schedule: Q01DX015 (ip), vehicle: carboxymethylcellulose (CMC)) 159 % of control. The T/C by setting is: (endpoint: mean survival time, dose: 11.0 mg/kg/injection, schedule: Q01DX Z (ip), vehicle: other) 151 % of control and 154 % of control; (endpoint: mean survival time, dose: 25.0 mg/kg/injection, schedule: Q## X001 (ip), vehicle: carboxymethylcellulose (CMC)) 113 % of control; (endpoint: mean survival time, dose: 50.0 mg/kg/injection, schedule: Q## X001 (ip), vehicle: carboxymethylcellulose (CMC)) 123 % of control; (endpoint: mean survival time, dose: 56.0 mg/kg/injection, schedule: Q01DX Z (ip), vehicle: other) 106 % of control.
For `CC(=O)c1ccc(S(=O)(=O)Cl)cc1`, the T/C reads like this: under setting [1], 113 % of control; under setting [2], 90 % of control; under setting [3], 104 % of control.
With `O=S(=O)(c1ccccc1)C(Br)c1ccccc1` (centres undefined), the T/C was 101 % of control under setting [4]; 105 % of control (endpoint: mean survival time, dose: 200.0 mg/kg/injection, schedule: Q04DX002 (ip), vehicle: Klucel (hydroxypropylcellulose) (HPC)); 97 % of control (endpoint: mean survival time, dose: 400.0 mg/kg/injection, schedule: Q04DX002 (ip), vehicle: Klucel (hydroxypropylcellulose) (HPC)).
As for `COC1OC2COC(c3ccccc3)OC2C(O)C1OC(=S)SSC(=S)OC1C(OC)OC2COC(c3ccccc3)OC2C1O` (centres undefined), the T/C runs as follows: (endpoint: mean survival time, dose: 25.0 mg/kg/injection, schedule: Q04DX002 (ip), vehicle: Klucel (hydroxypropylcellulose) (HPC)) 89 % of control; (endpoint: mean survival time, dose: 50.0 mg/kg/injection, schedule: Q04DX002 (ip), vehicle: Klucel (hydroxypropylcellulose) (HPC)) 104 % of control; under setting [4], 112 % of control.
In the case of `CN1CC(C)(C)C(O)c2ccccc21` (centres undefined), the T/C runs as follows: (endpoint: mean survival time, dose: 25.0 mg/kg/injection, schedule: Q04DX002 (ip), vehicle: other) 100 % of control; (endpoint: mean survival time, dose: 50.0 mg/kg/injection, schedule: Q04DX002 (ip), vehicle: other) 90 % of control; (endpoint: mean survival time, dose: 100.0 mg/kg/injection, schedule: Q04DX002 (ip), vehicle: other) 107 % of control.
